Results on 104 compounds are retold here after PubChem BioAssay AID1996.

In general, solubility (kinetic) refers to the concentration staying in solution when a stock, usually in DMSO, is diluted into the medium.

SMILES strings stand for the structures. Converted amounts (≈) assume the structure as drawn. A value given as a limit tells only on which side of the number the result lay.

The conditions of this series: buffer; pH 7.4; 200.0 µM.
The compound `c1ccc(CNc2c3ccccc3nc3ccccc23)cc1` came in with a kinetic solubility of 40.5 µg/mL (≈ 142 µM).
Take `CCCN(CC(=O)Nc1cc(C)on1)CC(=O)Nc1ccc(F)c(F)c1F`: the kinetic solubility worked out at 44.1 µg/mL (≈ 115 µM).
To `CCOc1ccc2nc(SCC(=O)NCc3ccccc3)[nH]c2c1` belongs 44.3 µg/mL (≈ 130 µM); to `COc1ccccc1-c1cc(-c2ccccc2)nc(=O)[nH]1`, over 41.7 µg/mL; to `COc1ccc(C(=O)NCCc2cn3ccccc3n2)cc1`, 42.9 µg/mL (≈ 145 µM).
To `CCCC(=O)NCc1ccncc1` belongs over 26.7 µg/mL; to `CN(C)C(CNC(=O)c1cccc(C#N)c1)c1ccco1` (centres undefined), 39.3 µg/mL (≈ 139 µM).
To `CCCNC(=O)COCc1cc(-c2ccc3c(c2)OCO3)on1` belongs over 47.7 µg/mL; to `COC(CNc1nc(SC)nc2sc3c(c12)CCN(C)C3)OC`, 52.4 µg/mL (≈ 148 µM); to `Cc1nc(Cc2nnc(SCC(=O)N3CC(=O)Nc4ccccc43)o2)cs1`, over 60.2 µg/mL.
`O=C(NCCN1CCOCC1)c1cc2ccccc2oc1=O` had a solubility (kinetic) of over 45.3 µg/mL.
To `COc1ccccc1CNC(=O)CS(=O)(=O)c1ccccc1` belongs 44 µg/mL (≈ 138 µM).
On to `CCCSc1nc2sc3c(c2c(=O)n1CC)CC(C)(C)OC3`, for which the kinetic solubility is under 0.4 µg/mL.
Then `CCc1ncc(C)nc1CC`, with 6.7 µg/mL (≈ 44.6 µM); and `CC(=Nc1ccccc1N)c1c(O)n(C)c(=O)n(C)c1=O`, with 3.6 µg/mL (≈ 12.5 µM).
Consider `NC(=O)c1ccc(Oc2ccc(Cl)cc2)c([N+](=O)[O-])c1`, for which the solubility (kinetic) is 2 µg/mL (≈ 6.83 µM).
To `COc1ccc2c(c1)c(C(=O)CN1CCc3ccccc3C1)c(C)n2C` belongs 29.6 µg/mL (≈ 84.9 µM); to `CN(C)C(=O)c1cc(C(=O)c2ccc(C(F)(F)F)cc2)c[nH]1`, 1.6 µg/mL (≈ 5.16 µM); to `CSc1ccccc1NC(=O)CSc1cccc[n+]1[O-]`, over 46 µg/mL.
To `CCOc1ccc(Nc2ccc([N+](=O)[O-])c3nonc23)cc1` belongs 15.2 µg/mL (≈ 50.6 µM); to `O=S1(=O)CCN(C(CCO)c2cccc(C(F)(F)F)c2)CC1` (centres undefined), over 50.6 µg/mL; to `Cn1c(SCc2cccc(C#N)c2)nc2ccccc2c1=O`, 0.4 µg/mL (≈ 1.3 µM).
Then `Cl.c1ccc2c3c(c(CN4CCCCC4)cc2c1)COC3`, with over 45.6 µg/mL; and `CC(=O)N1CCN=C1SCc1cccc(F)c1`, with 36.5 µg/mL (≈ 145 µM).
The compound `CNC(=O)Cn1ncc2c3ccccc3n(C)c2c1=O` came in with a solubility (kinetic) of over 40.5 µg/mL.
Then `COc1ccccc1NC(=O)COC(=O)/C=C/c1ccc(OC)c(OC)c1`, with 4.1 µg/mL (≈ 11 µM); and `O=C1NC(c2ccccc2Cl)=N/C1=C/c1ccco1`, with 8.5 µg/mL (≈ 31.2 µM); and `COCC(C)N1CC(O)=C(c2nc(-c3ccc(Cl)cc3)cs2)C1=N` (centres undefined), with 1.3 µg/mL (≈ 3.57 µM).
`COc1ccc(NC(=O)CNC(=O)c2c(C)nn(C)c2Cl)cc1` registered a solubility (kinetic) of over 50.5 µg/mL.
To `COc1ccc(NC(=O)CSc2ccccc2)c([N+](=O)[O-])c1` belongs 3.4 µg/mL (≈ 10.7 µM); to `Cc1ccc2nc(C)cc(C(=O)Nc3nccs3)c2c1`, 19.3 µg/mL (≈ 68.1 µM).
To `COc1ccc(Br)cc1CN(C)C(=O)C1=CC=CN2CCS(=O)(=O)N=C12` belongs 43.1 µg/mL (≈ 97.9 µM); to `O=C(CSc1cc(Cl)ccc1Cl)NC1CCCC1`, 3.6 µg/mL (≈ 11.8 µM); to `CCc1c(C)nc2c(OC)cccc2c1Cl`, 7.7 µg/mL (≈ 32.7 µM).
To `Cc1nc(-c2noc(-c3cccc(Cl)c3)n2)c(C(F)(F)F)o1` belongs under 0.2 µg/mL; to `CCc1ccc(OCC(=O)N2CC(C(=O)OC)Oc3ccccc32)cc1` (centres undefined), 36.6 µg/mL (≈ 103 µM); to `COC(=O)CSc1nc2sc3c(c2c(=O)[nH]1)CCC3`, 15.7 µg/mL (≈ 53 µM).
As to `Cl.O=C(Nc1cccc(Cl)c1)NC1CCN(C2CCCCC2)C1` (centres undefined), the kinetic solubility was over 53.7 µg/mL.
Then `Cn1ccnc1C(=O)c1ccc(N)cc1`, with over 30.2 µg/mL; and `COc1cnc(NS(=O)(=O)c2ccc(N)cc2)nc1`, with over 42 µg/mL.
Then `CCC(C)n1c(O)c(C=NCC2CCCO2)c(=O)[nH]c1=S` (centres undefined), with 38.3 µg/mL (≈ 123 µM); and `Cc1cc(C)n2ncc(C(=O)O)c2n1`, with over 28.7 µg/mL.
Then `O=C(O)C1C2CCC(C2)C1C(=O)NCCc1ccccc1` (centres undefined), with 42.9 µg/mL (≈ 149 µM).
The compound `CCOC(=O)c1c(C)nsc1NC(=O)C1CCCCC1` gave a solubility (kinetic) of 8.3 µg/mL (≈ 28 µM).
Then `Oc1ccc(F)c2cccnc12`, with 5 µg/mL (≈ 30.6 µM); and `Cc1ccc(S(=O)(=O)N2CCN(C(=O)c3cccs3)CC2)cc1C`, with 44.4 µg/mL (≈ 122 µM).
Then `CC1NC(=O)NC1CCCCCC(=O)Nc1ccc(F)cc1` (centres undefined), with over 46.1 µg/mL; and `Cc1ccc(OCCNC(=O)CNC(=O)c2ccccc2Cl)cc1`, with over 52 µg/mL; and `COc1ccc(NC(=O)CN(c2c(C)cccc2C)S(C)(=O)=O)cc1`, with 48.1 µg/mL (≈ 133 µM).
Then `Cc1ccc(S(=O)(=O)CC(=O)Nc2ccccn2)cc1`, with 42.3 µg/mL (≈ 146 µM); and `CCc1cc(C(=O)c2ccc(OC)cc2)c(NC(=O)CN2CCCC2)s1`, with 5.9 µg/mL (≈ 15.8 µM); and `COc1ccc(CCNC(=O)c2c(C)nc3ccccn23)cc1`, with 43 µg/mL (≈ 139 µM).
`COC(=O)Nc1nc(-c2cc(Cl)ccc2Cl)cs1`: the kinetic solubility was under 0.3 µg/mL.
`O=Cc1ccc(C(=O)OCC(=O)NC(=O)Nc2ccccc2F)cc1` yielded a kinetic solubility of 28.9 µg/mL (≈ 83.9 µM).
Regarding `Cc1ccc(S(=O)(=O)CCc2ccncc2)cc1`, the kinetic solubility was over 39.2 µg/mL.
To `Cc1ccc(NC(=O)CCOc2ccccc2C)cc1C` belongs 1.7 µg/mL (≈ 6 µM); to `COc1ccccc1OCCCCn1c(C(C)O)nc2ccccc21` (centres undefined), 49.9 µg/mL (≈ 147 µM); to `CCn1c(=O)c2cc(C(=O)NCCN(C)C)sc2c2ccccc21`, 51.5 µg/mL (≈ 150 µM).
To `CC(C)C(NC(=O)C1CC(=O)N(Cc2ccccc2)C1)c1nc2ccccc2[nH]1` (centres undefined) belongs over 58.6 µg/mL.
`CCC(NC(=O)c1ccccc1NC(=O)C(C)(C)C)C(=O)N1CC(C)OC(C)C1` (centres undefined) registered a kinetic solubility of over 60.5 µg/mL.
The compound `Cc1ccc(C(=O)O)cc1NC(=S)NCCc1ccccc1` displayed a solubility (kinetic) of over 47.2 µg/mL.
Then `Cc1cc(C)n(CC(=O)NCCC2=CCCCC2)n1`, with over 39.2 µg/mL; and `C[N+]1(CCOC(=O)C2(c3ccccc3)CCCC2)CCCCC1`, with over 47.5 µg/mL.
To `Cl.O=c1cc(CN2CCNCC2)nc2sccn12` belongs 44 µg/mL; to `COc1ccccc1/C=C(\C)C(=O)c1c(C)cc(C)[nH]c1=O`, over 44.6 µg/mL; to `CSc1nc2ccccc2c(=O)n1Cc1ccc(F)cc1`, under 0.3 µg/mL.
In turn, `Cc1cccc(NC(=O)c2cccnc2Oc2ccccc2)c1C(=O)O` gave a solubility (kinetic) of over 52.3 µg/mL.
To `OC1(c2ccccn2)COc2ccccc2O1` (centres undefined) belongs 28.1 µg/mL (≈ 123 µM); to `COc1cccc(/C=C/C(=O)OCC(=O)NCc2ccc3c(c2)OCO3)c1`, 3.3 µg/mL (≈ 8.93 µM); to `O=C1CN(S(=O)(=O)c2ccccc2Cl)CCN1`, over 41.2 µg/mL.
Consider `O=C(c1ccc(N2CCOCC2)c([N+](=O)[O-])c1)N1CCCCC1`, for which the solubility (kinetic) is over 47.9 µg/mL.
To `C/C(=C/c1ccccc1)C(=O)N1CCC(C)CC1` belongs over 36.5 µg/mL; to `Cc1ccc(S(=O)(=O)Nc2ccc(O)c3cccnc23)cc1`, 19 µg/mL (≈ 60.4 µM); to `CCNCc1ccc(OCc2cccs2)c(OCC)c1`, over 43.7 µg/mL.
To `C=C(C)c1cccc(C(C)(C)NC(=O)NCCN(CC)CC)c1` belongs 44 µg/mL (≈ 139 µM).
To `O=C(Nc1nc2ccccc2s1)NC1CCCCC1` belongs 1.6 µg/mL (≈ 5.81 µM); to `O=C(Nc1ccccc1)C(=O)c1c[nH]c2ccccc12`, 0.8 µg/mL (≈ 3.03 µM).
In turn, `CCCc1nnc(SCC(=O)NC2CC2)n1CC` came in with a solubility (kinetic) of over 40.3 µg/mL.
To `CC1(C)Cc2nc(-c3ccccc3)nc(SCC(=O)N3CCCC3)c2CO1` belongs 22.3 µg/mL (≈ 58.1 µM).
To `COc1cc(/C(C)=N/N2CCOCC2)cc(OC)c1OC` belongs over 44.2 µg/mL.
Then `CO/N=C/C(c1ccc(Cl)nc1)S(=O)(=O)c1ccccc1` (centres undefined), with over 48.7 µg/mL; and `COc1ccc(C(C)(C)C)cc1NC(=O)C1=CC=CN2CCS(=O)(=O)N=C12`, with 1.7 µg/mL (≈ 4.36 µM); and `CCC(C)NC(=O)c1ccc(NC(=O)C2=C(C)OCCS2)cc1` (centres undefined), with over 50.2 µg/mL.
Compound `CN1CCOC(c2ccccc2)c2ccccc2C1.Cl` (centres undefined) displayed a kinetic solubility of over 43.5 µg/mL.
Turning to `Cc1csc(NC(=O)CCCC(=O)O)c1-c1nc2ccccc2s1`, the solubility (kinetic) was over 54.1 µg/mL.
In turn, `CN(C)c1cccc(C(=O)OCC(=O)c2ccc[nH]2)c1` showed a solubility (kinetic) of over 40.8 µg/mL.
Then `Nc1ccccc1-c1nnc(SCC(=O)Nc2ccccc2OC(F)F)[nH]c1=O`, with over 62.9 µg/mL; and `CC(=O)NC(CSc1cc(C)nc2ccc(Br)cc12)C(=O)O` (centres undefined), with 57.2 µg/mL (≈ 149 µM); and `COc1cc(C(=O)NCC(=O)N2CCN(S(=O)(=O)c3ccccc3C(F)(F)F)CC2)cc(OC)c1OC`, with over 81.8 µg/mL.
Then `c1ccc(CCNCCCOc2cccc3ccccc23)cc1`, with 37.1 µg/mL (≈ 121 µM); and `CN1CC(C(=O)c2ccc(F)cc2)C(c2c(F)cccc2Cl)C1` (centres undefined), with 40.9 µg/mL (≈ 122 µM).
On to `COC(=O)C1CN(C(=O)C(C)Oc2ccccc2F)c2ccccc2O1` (centres undefined), for which the kinetic solubility was over 53.9 µg/mL.
To `CN(CC(O)Cn1c2ccccc2c2ccccc21)S(C)(=O)=O` (centres undefined) belongs over 49.9 µg/mL.
To `CCOc1ccccc1-c1noc(CCC(=O)NC2CCCCC2)n1` belongs 46.2 µg/mL (≈ 135 µM).
The compound `Cc1ccc(S(=O)(=O)N2CCOCC2)cc1NC(=O)COC(=O)/C=C/c1ccc(F)cc1` registered a kinetic solubility of 10.3 µg/mL (≈ 22.3 µM). Compared with the last compound, the solubility kinetic is about 4.5-fold lower.
Then `CC(Sc1nnc(-c2ccccc2F)n1C1CC1)C(N)=O` (centres undefined), with over 46 µg/mL; and `Cn1c(C(=O)O)ccc1S(=O)(=O)N1CCCCCC1`, with over 43 µg/mL.
To `COC(=O)c1c(NC(=O)c2ccoc2C)sc(C)c1C` belongs under 0.6 µg/mL; to `CCCc1cc(C(=O)NC(C)C2CCCO2)cs1` (centres undefined), over 40.1 µg/mL.
Then `CCOC(=O)N1CCN(Cc2ccc(O)c3ncccc23)CC1`, with 34.3 µg/mL (≈ 109 µM); and `O=C(COC(=O)c1ccc(Cl)c(Cl)c1)NC1CCCC1`, with 2 µg/mL (≈ 6.33 µM); and `CCOc1ccccc1NC(=O)CN1C(=O)CSC(C)C1=O` (centres undefined), with over 48.4 µg/mL.
For the compound `Cc1ccc2c(c1)c1c(n2CC(O)CN2CCCCC2C)CCCC1` (centres undefined), the kinetic solubility came out at 29.8 µg/mL (≈ 87.5 µM).
To `O=C(NCc1ccccc1Cl)c1ccc(Br)o1` belongs 41.9 µg/mL (≈ 133 µM).
